Reference: patent US20220235011A1, “PHTHALAZINONE COMPOUNDS AND USE THEREOF” (ST PHARM CO., LTD., priority 2019, published 2022)
Structures can show the parent of a compound that is named as a salt.

Target: T1, Sirt6 (Homo sapiens, UniProt Q8N6T7)
T1 construct: purchased CycLex CY-1156V2
Experiment: Measurement of Sirt6 Activity (CycLex Sirt6 Deacetylase Fluorometric Assay Kit)
Format: biochemical
Settings: compound at 10 μM; fluorescence relative to the group without compound treatment (positive control group)
Summary of the method: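 Recombinant Sirt6 with fluoro-labelled acetyl-lysine peptide, NAD and lysylendopeptidase developer, compound added from 10× stock in PBS; 1 h at room temperature. Fluorescence read at ex 490/em 530 nm; activation expressed as fluorescence ratio relative to enzyme without compound.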

T1 sequence (Q8N6T7 whole entry): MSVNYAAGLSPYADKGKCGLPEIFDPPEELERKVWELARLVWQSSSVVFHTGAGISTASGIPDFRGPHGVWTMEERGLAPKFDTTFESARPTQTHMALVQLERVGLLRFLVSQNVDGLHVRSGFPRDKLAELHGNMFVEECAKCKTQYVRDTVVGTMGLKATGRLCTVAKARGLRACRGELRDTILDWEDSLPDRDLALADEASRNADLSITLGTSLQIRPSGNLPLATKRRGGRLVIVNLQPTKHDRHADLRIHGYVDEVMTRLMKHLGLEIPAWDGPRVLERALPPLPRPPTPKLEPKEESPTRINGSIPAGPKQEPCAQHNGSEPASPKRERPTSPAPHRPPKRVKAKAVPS

Row | SMILES | Sirt6 Activity (% activity, 10 μM)
1 | CC(C)(C(=O)NCCO)c1cccc(-c2nn(-c3ccc(F)cc3F)c(=O)c3ccccc23)c1 [Example 186, 2-(3-(3-(2,4-Difluorophenyl)-4-oxo-3,4-dihydrophthalazin-1-yl)phenyl)-N-(2-hydroxyethyl)-2-methyl Propanamide] | 305.80 % activity
2 | CCS(=O)(=O)N[C@@H]1CCCCN(c2nn(-c3ccc(F)cc3F)c(=O)c3ccccc23)C1 [Example 187, (R)—N-(1-(3-(2,4-Difluorophenyl)-4-oxo-3,4-dihydrophthalazin-1-yl)azepan-3-yl)ethanesulfonamide] | 303.80 % activity
3 | CC(C)(C(N)=O)c1cccc(-c2nn(-c3ccc(F)cc3F)c(=O)c3ccccc23)c1 [Example 188, 2-(3-(3-(2,4-Difluorophenyl)-4-oxo-3,4-dihydrophthalazin-1-yl)phenyl)-2-methylpropanamide] | 358.40 % activity
4 | CN[C@@H]1CCCCN(c2nn(-c3ccc(F)cc3F)c(=O)c3ccccc23)C1 [Example 189, (R)-2-(2,4-Difluorophenyl)-4-(3-(methylamino)azepan-1-yl)phthalazin-1(2H)-one-hydrochloride] | 273.70 % activity
5 | O=c1c2ccccc2c(N2CCCCC(O)C2)nn1-c1ccc(F)cc1F (stereo not shown) [Example 190, 2-(2,4-Difluorophenyl)-4-(3-hydroxyazepan-1-yl)phthalazin-1(2H)-one] | 332.60 % activity
6 | Cl.O=c1c2ccccc2c(N2CCCC[C@@H](NCCO)C2)nn1-c1ccc(F)cc1F [Example 191, (R)-2-(2,4-Difluorophenyl)-4-(3-((2-hydroxyethyl)amino)azepan-1-yl)phthalazin-1(2H)-one-hydro Chloride] | 312.70 % activity
7 | CC(=O)N[C@@H]1CCCCN(c2nn(-c3ccc(F)cc3F)c(=O)c3ccccc23)C1 [Example 192, (R)—N-(1-(3-(2,4-Difluorophenyl)-4-oxo-3,4-dihydrophthalazin-1-yl)azepan-3-yl)acetamide] | 286.60 % activity
8 | O=C1CCCCN(c2nn(-c3ccc(F)cc3F)c(=O)c3ccccc23)C1 [Example 193, 2-(2,4-Difluorophenyl)-4-(3-oxoazepan-1-yl)phthalazin-1 (2H)-one] | 206.10 % activity
9 | CC(C)(C(=O)O)c1cccc(-c2nn(-c3ccc(Cl)cc3)c(=O)c3ccccc23)c1 [Example 194, 2-(3-(3-(4-Chlorophenyl)-4-oxo-3,4-dihydrophthalazin-1-yl)phenyl)-2-methylpropanoic Acid] | 350.20 % activity
10 | O=C(O)C1(c2cccc(-c3nn(-c4ccc(Cl)cc4)c(=O)c4ccccc34)c2)CC1 [Example 195, 1-(3-(3-(4-Chlorophenyl)-4-oxo-3,4-dihydrophthalazin-1-yl)phenyl)cyclopropan-1-carboxylic Acid] | 287.30 % activity
11 | O=c1c2ccccc2c(N2CCCCC(O)C2)nn1-c1ccc(Cl)cc1 (stereo not shown) [Example 196, 2-(4-Chlorophenyl)-4-(3-hydroxyazepan-1-yl)phthalazin-1(2H)-one] | 135.10 % activity
12 | CC(C)(C(N)=O)c1cccc(-c2nn(-c3ccc(Cl)cc3)c(=O)c3ccccc23)c1 [Example 197, 2-(3-(3-(4-Chlorophenyl)-4-oxo-3,4-dihydrophthalazin-1-yl)phenyl)-2-methylpropanamide] | 153.60 % activity
13 | NC(=O)C1(c2cccc(-c3nn(-c4ccc(Cl)cc4)c(=O)c4ccccc34)c2)CC1 [Example 198, 1-(3-(3-(4-Chlorophenyl)-4-oxo-3,4-dihydrophthalazin-1-yl)phenyl)cyclopropan-1-carboxyamide] | 225.40 % activity
14 | O=C(O)Cc1cccc(-c2nn(-c3ccc(F)cc3F)c(=O)c3ccccc23)c1 [Example 199, 2-(3-(3-(2,4-Difluorophenyl)-4-oxo-3,4-dihydrophthalazin-1-yl)phenyl)acetic Acid] | 149.41 % activity
15 | CC(C)(N)c1cccc(-c2nn(-c3ccc(F)cc3F)c(=O)c3ccccc23)c1.Cl [Example 200, 4-(3-(2-Aminopropan-2-yl)phenyl)-2-(2,4-difluorophenyl)phthalazin-1(2H)-one-hydrochloride] | 255.33 % activity
16 | CC(C)(C(=O)O)c1cccc(-c2nn(-c3ccc(Cl)cc3F)c(=O)c3ccccc23)c1 [Example 201, 2-(3-(3-(4-Chloro-2-fluorophenyl)-4-oxo-3,4-dihydrophthalazin-1-yl)phenyl)-2-methylpropanoic Acid] | 204.58 % activity
17 | Cl.N[C@@H]1CCCCN(c2nn(-c3ccc(Cl)cc3F)c(=O)c3ccccc23)C1 [Example 202, (R)-4-(3-Aminoazepan-1-yl)-2-(4-chloro-2-fluorophenyl)phthalazin-1-(2H)-one-hydrochloride] | 261.73 % activity
18 | N#CC1CCCCN(c2nn(-c3ccc(Cl)cc3F)c(=O)c3ccccc23)C1 (stereo not shown) [Example 203, 1-(3-(4-Chloro-2-fluorophenyl)-4-oxo-3,4-dihydrophthalazin-1-yl)azepane-3-carbonitrile] | 109.84 % activity
19 | CC(C)(CN)c1cccc(-c2nn(-c3ccc(F)cc3F)c(=O)c3ccccc23)c1.Cl [Example 204, 4-(3-(1-Amino-2-methylpropan-2-yl)phenyl)-2-(2,4-difluorophenyl)phthalazin-1(2H)-one-hydro Chloride] | 161.50 % activity
20 | CC(C)(C(=O)O)c1cccc(-c2nn(-c3ccc(C4CC4)cc3)c(=O)c3ccccc23)c1 [Example 206, 2-(3-(3-(4-Cyclopropylphenyl)-4-oxo-3,4-dihydrophthalazin-1-yl)phenyl)-2-methylpropanoic Acid] | 182.70 % activity
21 | O=C(O)C1(c2cccc(-c3nn(-c4ccc(F)cc4F)c(=O)c4ccccc34)c2)CCC1 [Example 207, 1-(3-(3-(2,4-Difluorophenyl)-4-oxo-3,4-dihydrophthalazin-1-yl)phenyl)cyclobutane-1-carboxylic Acid] | 309.90 % activity
22 | O=C(O)C1(c2cccc(-c3nn(-c4ccc(F)cc4F)c(=O)c4ccccc34)c2)CCCC1 [Example 208, 1-(3-(3-(2,4-Difluorophenyl)-4-oxo-3,4-dihydrophthalazin-1-yl)phenyl)cyclopentane-1-carboxylic Acid] | 117.30 % activity
23 | CC(C)(C(=O)O)C1CCCN(c2nn(-c3ccc(Cl)cc3)c(=O)c3ccccc23)C1 (stereo not shown) [Example 209, 2-(1-(3-(4-Chlorophenyl)-4-oxo-3,4-dihydrophthalazin-1-yl)piperidin-3-yl)-2-methylpropanoic Acid] | 169.10 % activity

Same assay, conditions: compound at 10 μM; fluorescence relative to the group without compound treatment (positive control group); 10 µM

Row | SMILES | Sirt6 Activity (% activity, 10 μM)
24 | CC(C)(C(=O)O)C1CCCN(c2nn(-c3ccc(F)cc3F)c(=O)c3ccccc23)C1 (stereo not shown) [Example 205, 2-(1-(3-(2,4-Difluorophenyl)-4-oxo-3,4-dihydrophthalazin-1-yl)piperidin-3-yl)-2-methylpropanoic Acid] | 105.70 % activity
25 | CC(C)(C(=O)O)C1CCCN(c2nn(-c3ccc(F)cc3F)c(=O)c3ccccc23)C1 (stereo not shown) [Example 210-1, 2-(1-(3-(2,4-Difluorophenyl)-4-oxo-3,4-dihydrophthalazin-1-yl)piperidin-3-yl)-2-methylpropanoic Acid] | 199.00 % activity
